Results from PubChem BioAssay (NCI).
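Tested at 5 concentrations; 48 h exposure; 96-well plates; endpoints linearly interpolated, else capped at highest concentration. Definition used: TGI = concentration required for complete inhibition of growth.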

What was measured:
Test in all cases: growth of human tumour cells (NCI), 48 h
HCT-116 colon = test system: HCT-116 colon
NCI-H23 lung = test system: NCI-H23 lung
SF-539 CNS = test system: SF-539 CNS
OVCAR-3 ovarian = test system: OVCAR-3 ovarian
SF-268 CNS = test system: SF-268 CNS
NCI/ADR-RES ovarian = test system: NCI/ADR-RES ovarian
A549 NSCLC = test system: A549 NSCLC
RPMI-8226 leukemia = test system: RPMI-8226 leukemia
SR leukemia = test system: SR leukemia
OVCAR-8 ovarian = test system: OVCAR-8 ovarian
COLO 205 colon = test system: COLO 205 colon
786-0 renal = test system: 786-0 renal
TK-10 renal = test system: TK-10 renal
NCI-H460 lung = test system: NCI-H460 lung
T-47D breast = test system: T-47D breast
SK-OV-3 ovarian = test system: SK-OV-3 ovarian
HT29 colon = test system: HT29 colon
K-562 leukemia = test system: K-562 leukemia
UO-31 renal = test system: UO-31 renal
PC-3 prostate = test system: PC-3 prostate
HCC-2998 colon = test system: HCC-2998 colon
IGROV1 ovarian = test system: IGROV1 ovarian
SW-620 colon = test system: SW-620 colon
SF-295 CNS = test system: SF-295 CNS
SN12C renal = test system: SN12C renal
OVCAR-5 ovarian = test system: OVCAR-5 ovarian
MOLT-4 leukemia = test system: MOLT-4 leukemia
M14 melanoma = test system: M14 melanoma
CAKI-1 renal = test system: CAKI-1 renal
KM12 colon = test system: KM12 colon
ACHN renal = test system: ACHN renal
UACC-257 melanoma = test system: UACC-257 melanoma
SNB-75 CNS = test system: SNB-75 CNS
OVCAR-4 ovarian = test system: OVCAR-4 ovarian
SK-MEL-5 melanoma = test system: SK-MEL-5 melanoma
SK-MEL-2 melanoma = test system: SK-MEL-2 melanoma
HOP-92 NSCLC = test system: HOP-92 NSCLC
DU-145 prostate = test system: DU-145 prostate
NCI-H226 lung = test system: NCI-H226 lung
BT-549 breast = test system: BT-549 breast
SNB-19 CNS = test system: SNB-19 CNS
MDA-MB-435 = test system: MDA-MB-435
UACC-62 melanoma = test system: UACC-62 melanoma
A498 renal = test system: A498 renal
HOP-62 NSCLC = test system: HOP-62 NSCLC
SK-MEL-28 melanoma = test system: SK-MEL-28 melanoma
HCT-15 colon = test system: HCT-15 colon
MDA-N = test system: MDA-N
EKVX NSCLC = test system: EKVX NSCLC
MDA-MB-231 breast = test system: MDA-MB-231 breast
RXF 393 renal = test system: RXF 393 renal
MCF7 breast = test system: MCF7 breast
HS 578T breast = test system: HS 578T breast
U251 CNS = test system: U251 CNS
NCI-H522 lung = test system: NCI-H522 lung
HL-60(TB) leukemia = test system: HL-60(TB) leukemia
LOX IMVI melanoma = test system: LOX IMVI melanoma
CCRF-CEM leukemia = test system: CCRF-CEM leukemia
MALME-3M melanoma = test system: MALME-3M melanoma

CC1=CSC(O)(c2ccc(Cl)cc2)c2noc(=O)n21 (configuration not stated)
TGI (HCT-116 colon): > 100 µM | TGI (NCI-H23 lung): > 100 µM | TGI (SF-539 CNS): > 100 µM | TGI (OVCAR-3 ovarian): > 100 µM | TGI (SF-268 CNS): > 100 µM | TGI (NCI/ADR-RES ovarian): > 100 µM | TGI (A549 NSCLC): > 100 µM | TGI (RPMI-8226 leukemia): > 100 µM | TGI (SR leukemia): > 100 µM | TGI (OVCAR-8 ovarian): > 100 µM | TGI (COLO 205 colon): > 100 µM | TGI (786-0 renal): > 100 µM | TGI (TK-10 renal): > 100 µM | TGI (NCI-H460 lung): > 100 µM | TGI (T-47D breast): > 100 µM | TGI (SK-OV-3 ovarian): > 100 µM | TGI (HT29 colon): > 100 µM | TGI (K-562 leukemia): > 100 µM | TGI (UO-31 renal): > 100 µM | TGI (PC-3 prostate): > 100 µM | TGI (HCC-2998 colon): > 100 µM | TGI (IGROV1 ovarian): > 100 µM | TGI (SW-620 colon): > 100 µM | TGI (SF-295 CNS): > 100 µM | TGI (SN12C renal): > 100 µM | TGI (OVCAR-5 ovarian): > 100 µM | TGI (MOLT-4 leukemia): > 100 µM | TGI (M14 melanoma): > 100 µM | TGI (CAKI-1 renal): > 100 µM | TGI (KM12 colon): > 100 µM | TGI (ACHN renal): > 100 µM | TGI (UACC-257 melanoma): 60.3 µM | TGI (SNB-75 CNS): > 100 µM | TGI (OVCAR-4 ovarian): > 100 µM | TGI (SK-MEL-5 melanoma): > 100 µM | TGI (SK-MEL-2 melanoma): > 100 µM | TGI (HOP-92 NSCLC): > 100 µM | TGI (DU-145 prostate): > 100 µM | TGI (NCI-H226 lung): > 100 µM | TGI (BT-549 breast): > 100 µM | TGI (SNB-19 CNS): > 100 µM | TGI (MDA-MB-435): > 100 µM | TGI (UACC-62 melanoma): > 100 µM | TGI (A498 renal): > 100 µM | TGI (HOP-62 NSCLC): > 100 µM | TGI (SK-MEL-28 melanoma): > 100 µM | TGI (HCT-15 colon): > 100 µM | TGI (MDA-N): > 100 µM | TGI (EKVX NSCLC): > 100 µM | TGI (MDA-MB-231 breast): > 100 µM | TGI (RXF 393 renal): > 100 µM | TGI (MCF7 breast): > 100 µM

O=C(O)CC(C(=O)O)C1c2ccccc2-c2ccccc21 (configuration not stated)
TGI (HCT-116 colon): > 100 µM | TGI (NCI-H23 lung): > 100 µM | TGI (OVCAR-3 ovarian): > 100 µM | TGI (SF-268 CNS): > 100 µM | TGI (NCI/ADR-RES ovarian): > 100 µM | TGI (A549 NSCLC): > 100 µM | TGI (RPMI-8226 leukemia): > 100 µM | TGI (SR leukemia): > 100 µM | TGI (HS 578T breast): > 100 µM | TGI (U251 CNS): > 100 µM | TGI (OVCAR-8 ovarian): > 100 µM | TGI (COLO 205 colon): > 100 µM | TGI (786-0 renal): > 100 µM | TGI (TK-10 renal): > 100 µM | TGI (NCI-H460 lung): > 100 µM | TGI (T-47D breast): > 100 µM | TGI (SK-OV-3 ovarian): > 100 µM | TGI (NCI-H522 lung): > 100 µM | TGI (HT29 colon): > 100 µM | TGI (HL-60(TB) leukemia): > 100 µM | TGI (K-562 leukemia): > 100 µM | TGI (UO-31 renal): > 100 µM | TGI (PC-3 prostate): > 100 µM | TGI (LOX IMVI melanoma): > 100 µM | TGI (HCC-2998 colon): > 100 µM | TGI (IGROV1 ovarian): > 100 µM | TGI (SW-620 colon): > 100 µM | TGI (SF-295 CNS): > 100 µM | TGI (SN12C renal): > 100 µM | TGI (CCRF-CEM leukemia): > 100 µM | TGI (MOLT-4 leukemia): > 100 µM | TGI (M14 melanoma): > 100 µM | TGI (CAKI-1 renal): > 100 µM | TGI (KM12 colon): > 100 µM | TGI (ACHN renal): > 100 µM | TGI (UACC-257 melanoma): > 100 µM | TGI (OVCAR-4 ovarian): > 100 µM | TGI (SK-MEL-5 melanoma): > 100 µM | TGI (SK-MEL-2 melanoma): > 100 µM | TGI (DU-145 prostate): > 100 µM | TGI (NCI-H226 lung): > 100 µM | TGI (BT-549 breast): > 100 µM | TGI (SNB-19 CNS): > 100 µM | TGI (MDA-MB-435): > 100 µM | TGI (UACC-62 melanoma): > 100 µM | TGI (A498 renal): > 100 µM | TGI (HOP-62 NSCLC): > 100 µM | TGI (SK-MEL-28 melanoma): > 100 µM | TGI (HCT-15 colon): > 100 µM | TGI (MDA-N): > 100 µM | TGI (EKVX NSCLC): > 100 µM | TGI (MDA-MB-231 breast): > 100 µM | TGI (MALME-3M melanoma): > 100 µM | TGI (RXF 393 renal): > 100 µM | TGI (MCF7 breast): > 100 µM
